Source: patent US12064641B2, “Bactericidal methods and compositions” (Pulsethera, Inc., priority 2019, dated 2024)
Where two headings read alike, the source gives them in different places. Values belong to the molecule of their own block, whether it stands above or below them.

Experiments:
CASC5314 = settings: 410 nm plus low-concentration H2O2; log-phase or stationary-phase
Procedure: (§1) PrestoBlue viability assay: First log-phase fungal pathogens were prepared by diluting overnight-cultured fungal pathogens into fresh YPD broth at a ratio of 1:50 and cultured for another 2-3 hours at 30 C with the shaking speed of 200 rpm. After that, the fungal concentration was adjusted to be around 1×10^8 cells/ml by centrifuging or further dilution with PBS. 10 μl of the above fungal solution was exposed to 410 nm for 5 min (150 mW/cm^2). After that, the exposed sample was collected into 990 μl of sterile PBS, then supplemented with treatment agents. Aliquots were made from the above sample into a 96-well plate, with each well containing 100 μl. Then 100 μl sterile YPD broth and 23 μl of PrestoBlue were added into the same well. Fluorescence signal at 590 nm from each well was recorded in a time-course (up to 18 hours with the interval of 30 min) manner at an excitation of 560 nm. For each strain, in order to know the exact number of fungal pathogens in each well, the corresponding fluorescence signals were recorded from fungal pathogens with known numbers, however no external treatments.

clinical fungal isolates = settings: 410 nm plus H2O2; more than twenty different clinical fungal isolates
Procedure: as §1

Candida albicans SC5314 = system: Candida albicans SC5314
Procedure: CFU test to quantify the treatment efficacy: Quantification of antifungal treatment schemes were achieved as following: overnight cultured fungal specimen was washed by sterile PBS. And log-phase fungal pathogens were prepared by dilution into fresh YPD broth at a ratio of 1:50 and cultured for another 2-3 hours at 30° C. with the shaking speed of 200 rpm. After that, the fungal concentration was adjusted to be around 1×10^8 cells/ml by centrifuging or further dilution with PBS. 10 μl of the above fungal solution was exposed to 410 nm for 5 min (150 mW/cm^2). After that, the exposed sample was collected into 990 μl of sterile PBS, then supplemented with treatment agents. Later, CFU of fungal cells was enumerated by serial dilution and cultured in YPD agar plates for 48 hours.

Salmonella enterica = settings: ns-410 nm combined with H2O2 22 mM
From the text: (§2) CFU experiments to test the potential synergy between photoinactivation of catalase and H2O2: Overnight-cultured bacteria was centrifuged, the supernatant was discarded, and the pellet was resuspended with the same amount of PBS. The laser source used in the study is nanosecond (ns) pulsed OPO laser purchased from OPOTEK Inc, model number as Opolette HE355 LD, having the following key specifications: wavelength range, 410-2400 nm; pulse repetition rate, 20 Hz; maximum pulse energy at 460 nm, 8 mJ; pulse duration, 5 nanosecond; spectral linewidth, 4-6 cm-1; and pulse-to-pulse stability, <5%. For each bacterial strain there were four groups: untreated one, ns-410 nm-treated group, H2O2 (22 or 44 mM)-treated group, ns-410 nm plus H2O2 (22 or 44 mM)-treated group. Dose for ns-410 nm exposure was 15 J/cm^2. H2O2 was incubated with bacteria for 30 min at 37° C. with the shaking speed of 200 rpm. After incubation, bacterial burden from each group was serial diluted, inoculated onto TSA plates, then counted by enumeration of these plates.

[1] = system: stationary-phase MRSA USA300
From the text: as §2

[2] = system: stationary-phase Pseudomonas aeruginosa
From the text: as §2

C. auris strains = assay: PrestoBlue viability assay, amp B; assay type: cell-based, Candida auris
E. coli BW25113 [3] = assay: CFU, photoinactivation of catalase with silver cation; assay type: cell-based, Escherichia coli; settings: 30 and 60 minutes
MRSA USA300 = assay: Spread agar plates, photoinactivation of catalase with silver cation; assay type: cell-based, methicillin-resistant Staphylococcus aureus
[4] = system: Enterococcus faecalis NR-31970; assay: CFU test of synergy between photoinactivation of catalase and ROS-generating antibiotics (catalase-negative control); assay type: cell-based; settings: ns-410 nm plus tobramycin 2 μg/ml, 4-hour incubation; catalase-negative strain
Procedure: (§3) Then prior to any treatments, the above solution was incubated with antibiotics (10 μg/ml) for 1 hour. For each bacterial strain, four groups were tested: untreated one, ns-410 nm-treated group, antibiotic (2 μg/ml)-treated group, ns-410 nm plus antibiotic (2 μg/ml)-treated group. Dose for ns-410 nm exposure was 15 J/cm2.

E. coli BW25113 [5] = assay: CFU test of synergy between photoinactivation of catalase and ROS-generating antibiotics; assay type: cell-based, Escherichia coli; settings: ns-410 nm (15 J/cm2) plus tobramycin 2 μg/ml, 4-hour incubation
Procedure: as §3

[6] = H2O2 22 mM after photoinactivation of catalase (15 J/cm2)

Structure (SMILES): OO [H2O2, hydrogen peroxide]
effect of photoinactivation of catalase on killing by H2O2 (PrestoBlue fluorescence) (CASC5314): always boosts the killing effect
killing by synergistic therapy (PrestoBlue) (clinical fungal isolates): significant killing was consistently found
enhancement of the function of H2O2 after photoinactivation of catalase (Candida albicans SC5314; 410 nm exposure then H2O2, FIG. 11): more than five
killing effect (CFU ml-1) (Candida albicans SC5314; H2O2 alone, 44 mM (0.15%), 1.5-hour incubation, stationary-phase): doesn't exert significant killing effect
eradication (time-killing, CFU) (Candida albicans SC5314; low-concentration H2O2 after 410 nm exposure, FIG. 11): eradication was achieved
eradication (Candida albicans SC5314; ns-410, ns-420 or ns-430 combined with H2O2 44 mM): total eradication
reduction of fungal burden (Candida albicans SC5314; ns-450 or ns-480 nm combined with H2O2 44 mM): reduced a similar amount of fungal burden as H2O2-alone
reduction of burden (Candida albicans SC5314; ns-light (24 J/cm^2) in combination with H2O2 44 mM): around four
enhanced killing effect (Salmonella enterica): around five
killing efficacy, ns-410 nm plus H2O2 compared to CW-410 nm plus H2O2 ([1]; FIG. 6): significantly more effective
reduction of bacterial burden [1, 6]: ≥ 3 log 10 reduction
reduction of bacterial burden ([1]; ns-410 nm (15 J/cm2) in combination with H2O2 22 mM): approximately four
reduction of bacterial burden ([1]; ns-430 nm combined with H2O2 22 mM): around 99%
reduction of bacterial burden ([1]; ns-450 or ns-460 nm combined with H2O2 22 mM): around 90%
reduction of bacterial burden ([1]; ns-470 nm combined with H2O2 22 mM): around 50%
antimicrobial effect ([1]; ns-480 nm combined with H2O2 22 mM): barely exerts an antimicrobial effect
killing efficacy, ns-410 nm plus H2O2 compared to CW-410 nm plus H2O2 ([2]; FIG. 6): significantly more effective
reduction of bacterial burden [2, 6]: ≥ 3 log 10 reduction
eradication ([2]; H2O2 22 mM combined with 410 nm exposure (15 J/cm2)): total eradication
antimicrobial effect (CFU ml-1) ([2]; H2O2 alone, 22 mM): didn't exert any significant antimicrobial effect

Structure (SMILES): C[C@@H]1[C@H](O)[C@@H](C)/C=C/C=C/C=C/C=C/C=C/C=C/C=C/[C@H](O[C@@H]2O[C@H](C)[C@@H](O)[C@H](N)[C@@H]2O)C[C@@H]2O[C@](O)(C[C@@H](O)C[C@@H](O)[C@H](O)CC[C@@H](O)C[C@@H](O)CC(=O)O[C@H]1C)C[C@H](O)[C@H]2C(=O)O [amp B, amphotericin B]
eradication (PrestoBlue fluorescence) (C. auris strains; 410 nm plus amp B, same result with 410 nm without amp B, ten strains): total eradication
susceptibility (PrestoBlue fluorescence) (C. auris strains; amp B alone, without photoinactivation of catalase): some C. auris strains were resilient

MRSA eliminated (MRSA USA300; ns-410 nm combined with 10 μM silver cation, one hour after treatment): about 90%
Structure (SMILES): [Ag+] [silver cation]
killing effect (CFU ml-1) (E. coli BW25113 [3]; 0.5 μM Ag+ alone): doesn't exert any significant killing effect
reduction of bacterial burden (E. coli BW25113 [3]; CW-410 (22 J/cm^2) combined with 0.5 μM Ag+): didn't significantly reduce bacterial burden
reduction of bacterial burden (E. coli BW25113 [3]; ns-410 (22 J/cm^2) in combination with 0.5 μM Ag+): around 99%
antimicrobial effect (MRSA USA300; silver cation alone): does not exert any significant antimicrobial effect

Structure (SMILES): NC[C@H]1O[C@H](O[C@H]2[C@H](O)[C@@H](O[C@H]3O[C@H](CO)[C@@H](O)[C@H](N)[C@H]3O)[C@H](N)C[C@@H]2N)[C@H](N)C[C@@H]1O [tobramycin, Tobramycin]
enhanced killing effect in combination-treated group [4]: did not produce any enhanced killing effect
enhancement of killing in combination-treated group (E. coli BW25113 [5]): More than 100 times
